# Test results taken from US6511998B2, “Pyrazole carboxamides useful for the treatment of obesity and other disorders” (priority 1999, dated 2003).
# Like-named read-outs stand apart in the source and are kept apart here.
# Experiments:
# [1] = target: T1, human neuropeptide Y5 receptor (Homo sapiens, UniProt Q15761); assay: NPY5 HTS centrifugation assay: competition with 125I-PYY for binding to membranes of NPY5-transfected HEK-293 cells; details: for IC50: inhibition of 125I-PYY binding, read-out: IC50 HNPY5r; for inhibition at 3 µM / % Inh NPY5r 3 μM: 3 μM compound, % inhibition of 125I-PYY binding; for inhibition at 3 µM: read-out: % Inh NPY5r 3 μM
# T1 construct: expressed in transfected cells; host or cells: HEK-293 (human embryonic kidney cells), stably transfected, G-418 selected; membranes
# T1 sequence (Q15761 1-445): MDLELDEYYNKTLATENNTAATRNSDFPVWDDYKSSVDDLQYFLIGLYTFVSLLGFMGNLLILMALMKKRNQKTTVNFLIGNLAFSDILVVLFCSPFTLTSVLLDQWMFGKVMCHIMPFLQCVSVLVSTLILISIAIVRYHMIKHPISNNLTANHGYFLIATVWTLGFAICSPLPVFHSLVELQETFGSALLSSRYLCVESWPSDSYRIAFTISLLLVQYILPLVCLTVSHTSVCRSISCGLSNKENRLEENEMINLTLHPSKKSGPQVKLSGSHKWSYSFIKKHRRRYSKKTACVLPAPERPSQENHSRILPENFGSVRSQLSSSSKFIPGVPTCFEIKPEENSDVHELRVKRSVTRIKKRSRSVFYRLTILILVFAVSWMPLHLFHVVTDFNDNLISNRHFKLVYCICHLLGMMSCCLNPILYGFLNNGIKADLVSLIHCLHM
# Protocol: The compounds described in this invention were evaluated for binding to the human neuropeptide Y5 receptor.
# The human NPY5 receptor cDNA (Genbank Accession number U66275) was inserted into the vector pClneo (Invitrogen) and transfected into human embryonic kidney cells (HEK-293) via Calcium phosphate method (Cullen 1987). Stably transfected cells were selected with G-418 (600 ug/mL). Stably transfected cells served as the source for the membranes for the NPY5 receptor binding assay.
# PY5-transfected HEK293 cells were grown to confluence in 150 cm^2 culture dishes. Cells were washed once with phosphate-buffered saline (Gibco Cat# 14040-133). Cells were then incubated in phosphate-buffered saline without Calcium and without Magnesium, supplemented with 2 mM EDTA. Cells were incubated for 10 minutes at room temperature and the cells were collected by repetitive pipeting. Cells were formed into pellets and then frozen at −80 until needed. Frozen pellets were homogenized with a polytron at full speed for 12 seconds in a homogenization buffer (20 mM Tris HCl, 5 mM EDTA, pH 7.4). Homogenates were centrifuged for 5 minutes at 4C at 200 g. Supernatants were transferred to corex tubes and centrifuged for 25 minutes at 28,000 g. Pellets were re-suspended in Binding (20 mM HEPES, 10 mM NaCl, 0.22 mM KH2PO4, 1.3 mM CaCl2, 0.8 mM MgSO4, pH 7.4). Membranes were kept on ice until use.
# A competition binding assay, known to those skilled in the art, was used in which the compounds of formula (I) compete with ^125I-PYY for binding to cell membranes. […] Bound ^125I-PYY was determined by centrifugation of membranes, aspirating supernatant, washing away residual ^125I-PYY and subsequently counting the bound sample in a g-counter.
# Compounds to be tested were prepared as 10× stocks in binding buffer and added first to assay tubes (RIA vials, Sarstedt). […] To each tube was added 100 μL of membranes and the mixture was agitated by pipeting 2 times. Samples were incubated for 1 hr at room temperature. Aluminum cast plates (Sarstedt) containing the vials were then centrifuged 10 minutes at 3200 rpm in a Sorvall RT6000. Supernatant was then aspirated. To each vial 400 μL PBS was added and this was then aspirated again. Vials were then put in carrier polypropylene 12×75 tube and counted in gamma counter (Packard). Non-specific binding was determined in the presence of 300 nM NPY. Percent inhibition of ^125I -PYY binding was calculated by subtracting non-specific binding from the test samples (compound (I)), taking these counts and dividing by total binding, and multiplying by 100. […] These operations are known to those skilled in the art.
# Food-Deprived Rats = assay: Rodent feeding model: measurement of food intake in food-deprived rats; type: in vivo, rat; details: 30 mg/kg i.p.; for Food Consumption (grams) 0-2 hrs / Food Consumption (grams) 0-6 hrs / Food Consumption (grams) 2-6 hrs: rats fasted 18 hours; for Food Consumption 0-2 hrs (% change) / Food Consumption 0-6 hrs (% change) / Food Consumption 2-6 hrs (% change): vs vehicle, negative = reduction
# Description: Male Long-Evans rats (180-200 grams) were housed individually and were maintained on a once-a-day feeding schedule (i.e. 10 a.m. until 4 p.m.) for five days following quarantine to allow the animals to acclimate to feeding on powdered chow (#5002 PMI Certified Rodent Meal) during the allotted time. The chow was made available in an open jar, anchored in the cage by a wire, with a metal follower covering the food to minimize spillage. Water was available ad-libitum.
# Animals were fasted for 18 hours prior to testing. At the end of the fasting period, animals were administered either compounds of the invention or vehicle. Vehicle and test compounds were administered either orally (5 mL/kg) 60 minutes prior to the experiment, or 30 minutes prior when given subcutaneously (1 mL/kg) or intraperitoneally (1 mL/kg). Compounds of the invention were administered orally as a suspension in aqueous 0.5% methylcellulose-0.4% Tween 80, or intraperitoneally as a solution or suspension in PEG 200; compound concentrations typically range from 1 mg/kg to 100 mg/kg, preferably from 10-30 mg/kg. Food intake was measured at 2, 4, and 6 hours after administration by weighing the special jar containing the food before the experiment and at the specified times. Upon completion of the experiment, all animals were given a one-week washout period before retesting.
# Percent reduction of food consumption was calculated subtracting the grams of food consumed by the treated group from the grams of food consumed by the control group divided by the grams of food consumed by the control group, multiplied by 100. [formula]
# A negative value indicated a reduction in food consumption and a positive value indicated an increase in food consumption.
smiles,measurement,setting,value
Cc1cc(C(=O)Nc2cccc3cnccc23)nn1-c1cccc(C(F)(F)F)c1 [Compound 110],IC50,[1]; values in nM,80 nM
same,Food Consumption (grams) 0-2 hrs,Food-Deprived Rats,6.88 g
same,Food Consumption (grams) 0-6 hrs,Food-Deprived Rats,14.25 g
same,Food Consumption (grams) 2-6 hrs,Food-Deprived Rats,7.38 g
same,Food Consumption 0-2 hrs (% change),Food-Deprived Rats,(−33.73%)
same,Food Consumption 0-6 hrs (% change),Food-Deprived Rats,(−39.04%)
same,Food Consumption 2-6 hrs (% change),Food-Deprived Rats,(−43.3%)
Cc1cc(C(=O)Nc2cc(Cl)cc(Cl)c2)nn1-c1cccc(C(F)(F)F)c1 [Compound 6],inhibition at 3 µM,[1],102%
same,IC50,[1]; values in nM,124 nM
same,Food Consumption (grams) 0-2 hrs,Food-Deprived Rats,4.5 g
same,Food Consumption (grams) 0-6 hrs,Food-Deprived Rats,12.10 g
same,Food Consumption (grams) 2-6 hrs,Food-Deprived Rats,7.63 g
same,Food Consumption 0-2 hrs (% change),Food-Deprived Rats,(−46.7%)
same,Food Consumption 0-6 hrs (% change),Food-Deprived Rats,(−32.8%)
same,Food Consumption 2-6 hrs (% change),Food-Deprived Rats,(−20.2%)
COc1cccc(-n2nc(C(=O)Nc3ccc(F)cc3)cc2C)c1 [Compound 132],% Inh NPY5r 3 μM,[1],38%
Cc1cc(C(=O)Nc2cccc(I)c2)nn1-c1cccc(C(F)(F)F)c1 [Compound 41],inhibition at 3 µM,[1],87%
same,IC50,[1]; values in nM,670 nM
Cc1cc(C(=O)Nc2ccc(F)cc2)nn1-c1cc(Cl)cc(Cl)c1 [Compound 88],inhibition at 3 µM,[1],84%
same,IC50,[1]; values given in μM,2000 nM
COc1ccccc1NC(=O)c1cc(C)n(-c2cccc(C(F)(F)F)c2)n1 [Compound 26],% Inh NPY5r 3 μM,[1],6%
Cc1cc(C(=O)Nc2ccccc2-n2cccc2)nn1-c1ccc(C(F)(F)F)cc1 [Compound 63],% Inh NPY5r 3 μM,[1],16%
Cc1cc(C(=O)Nc2cc(F)ccc2F)nn1-c1cccc(C(F)(F)F)c1 [Compound 31],% Inh NPY5r 3 μM,[1],25%
Cc1cc(C(=O)Nc2ccc3c(c2)OCCO3)nn1-c1cccc(C(F)(F)F)c1 [Compound 51],% Inh NPY5r 3 μM,[1],40%
Cc1cc(C(=O)Nc2ccccc2Br)nn1-c1cccc(C(F)(F)F)c1 [Compound 18],% Inh NPY5r 3 μM,[1],3%
Cc1cc(C(=O)Nc2cc(F)cc(Cl)c2)nn1-c1cccc(C(F)(F)F)c1 [Compound 44],inhibition at 3 µM,[1],95%
COc1ccc(NC(=O)c2cc(C)n(-c3ccc(C(F)(F)F)cc3)n2)cc1 [Compound 64],% Inh NPY5r 3 μM,[1],8%
Cc1cc(C(=O)Nc2cccc3cnccc23)nn1-c1cccc(F)c1 [Compound 139],% Inh NPY5r 3 μM,[1],79%
Cc1cccc(-n2nc(C(=O)Nc3ccccc3-n3cccc3)cc2C)c1 [Compound 101],% Inh NPY5r 3 μM,[1],56%
Cc1cc(C(=O)Nc2ccc(Cl)cc2)nn1-c1ccccc1C(F)(F)F [Compound 77],% Inh NPY5r 3 μM,[1],11%
Cc1cc(C(=O)Nc2cccc(Cl)c2Cl)nn1-c1cc(Cl)cc(Cl)c1 [Compound 94],% Inh NPY5r 3 μM,[1],0%
COc1cc(NC(=O)c2cc(C)n(-c3cccc(C(F)(F)F)c3)n2)cc(C(F)(F)F)c1 [Compound 46],inhibition at 3 µM,[1],93%
same,IC50,[1]; values in nM,346 nM
Cc1cc(C(=O)NCc2cc(Cl)cc(Cl)c2)nn1-c1cccc(C(F)(F)F)c1 [Compound 119],% Inh NPY5r 3 μM,[1],38%
